According to patent publication US8168795B2, “Selective sphingosine-1-phosphate receptor antagonists” (Allergan, Inc., priority 2009, dated 2012):

Target: S1P3 receptor (Homo sapiens, UniProt Q99500)
Experiment: GTP γ35S binding assay, antagonist mode
Assay type: biochemical
Details: for IC50: antagonist assay, reaction mixture contained 10 nM S1P, membranes, read-out: S1P3 GTPγ^35S IC50
Procedure: B. Novel compounds were synthesized and tested for S1P3 activity using the GTP γ^35S binding assay. GTP γ^35S binding was measured in the medium containing (mM) HEPES 25, pH 7.4, MgCl2 10, NaCl 100, dithiothreitol 0.5, digitonin 0.003%, 0.2 nM GTP γ^35S, and 5 μg membrane protein in a volume of 150 μl. Test compounds were included in the concentration range from 0.08 to 5,000 nM unless indicated otherwise. Membranes were incubated with 100 μM 5′-adenylylimmidodiphosphate for 30 min, and subsequently with 10 μM GDP for 10 min on ice. Drug solutions and membrane were mixed, and then reactions were initiated by adding GTP γ^35S and continued for 30 min at 25° C. Reaction mixtures were filtered over Whatman GF/B filters under vacuum, and washed three times with 3 mL of ice-cold buffer (HEPES 25, pH7.4, MgCl2 10 and NaCl 100). Filters were dried and mixed with scintillant, and counted for ^35S activity using a β-counter. Agonist-induced GTP γ^35S binding was obtained by subtracting that in the absence of agonist. Binding data were analyzed using a non-linear regression method. In case of antagonist assay, the reaction mixture contained 10 nM S1P in the presence of test antagonist at concentrations ranging from 0.08 to 5000 nM.

S1P3 receptor, sequence (Q99500 whole entry): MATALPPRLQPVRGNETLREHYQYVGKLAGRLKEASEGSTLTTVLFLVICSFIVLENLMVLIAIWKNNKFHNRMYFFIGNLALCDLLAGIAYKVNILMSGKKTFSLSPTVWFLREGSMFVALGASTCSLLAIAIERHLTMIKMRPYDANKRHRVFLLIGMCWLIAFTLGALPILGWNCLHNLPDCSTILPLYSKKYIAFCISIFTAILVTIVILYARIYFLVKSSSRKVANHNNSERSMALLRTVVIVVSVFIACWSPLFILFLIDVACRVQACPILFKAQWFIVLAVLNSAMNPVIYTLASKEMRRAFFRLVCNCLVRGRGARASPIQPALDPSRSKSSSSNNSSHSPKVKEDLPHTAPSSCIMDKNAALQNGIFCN

SMILES | IC50 | activity of separated enantiomer (enantiomers of Compound-28 separated by chiral HPLC, assay not stated)
O=C(NC(Nc1ccc(Cl)cc1)C(=O)c1ccc2ccccc2c1)c1ccc(Br)cn1 (stereo not drawn) [Compound-2, 5-bromo-N-(1-(4-chlorophenylamino)-2-(naphthalen-2-yl)-2-oxoethyl)picolinamide] | 31 nM | –
CC1CCC(NC(NC(=O)c2ccc(Br)cc2)C(Cl)(Cl)Cl)CC1 (single isomer, unassigned) [Compound-49, 4-bromo-N-(2,2,2-trichloro-1-(4-methylcyclohexylamino)ethyl)benzamide] | 671 nM | –
CCC(Cl)(Cl)C(NC(=O)c1ccc(Br)cn1)Nc1ccc(Cl)cc1 (stereo not drawn) [Compound-27, 5-Bromo-N-(2,2-dichloro-1-(4-chlorophenylamino)butyl)picolinamide] | 56 nM | –
O=C(NC(Nc1ccc(Cl)cc1)c1ccc(Cl)cc1)c1ccc(Br)cn1 (stereo not drawn) [Compound-7, 5-Bromo-N-((4-chlorophenyl)(4-chlorophenylamino)methyl)picolinamide] | 115 nM | –
COc1cccc(C(=O)C(NC(=O)c2ccc(Br)cn2)Nc2ccc(Cl)cc2)c1 (stereo not drawn) [Compound-3, 5-bromo-N-(1-(4-chlorophenylamino)-2-(3-methoxyphenyl)-2-oxoethyl)picolinamide] | 5.2 nM | –
O=C(NC(Nc1cnc(Cl)nc1)C(F)(F)C(F)(F)F)c1ccc(Br)cn1 (stereo not drawn) [Compound-35, 5-Bromo-N-(1-(2-chloropyrimidin-5-ylamino)-2,2,3,3,3-pentafluoropropyl)picolinamide] | 2 nM | –
O=C(NC(Nc1ccc(Cl)cc1)c1cc2ccccc2o1)c1ccc(Br)cn1 (stereo not drawn) [Compound-10, N-(benzofuran-2-yl(4-chlorophenylamino)methyl)-5-bromopicolinamide] | 4.7 nM | –
O=C(NC(Nc1cnc(Cl)nc1)C(F)(F)C(F)(F)C(F)(F)C(F)(F)C(F)(F)C(F)F)c1ccc(Br)cn1 (stereo not drawn) [Compound-37, 5-Bromo-N-(1-(2-chloropyrimidin-5-ylamino)-2,2,3,3,4,4,5,5,6,6,7,7-dodecafluoroheptyl)picolinamide] | 59 nM | –
O=C(NC(Nc1ccc(Cl)cc1)C(=O)c1cccc2ccccc12)c1ccc(Br)cn1 (stereo not drawn) [Compound-1, 5-bromo-N-(1-(4-chlorophenylamino)-2-(naphthalen-1-yl)-2-oxoethyl)picolinamide] | 10 nM | –
O=C(NC(Nc1ccc(Cl)cc1)C(F)(F)C(F)(F)C(F)(F)C(F)(F)F)c1ccc(Br)cn1 (stereo not drawn) [Compound-29] | 5.5 nM | –
O=C(NC(Nc1ccc(Cl)cc1)C(F)(F)C(F)(F)F)c1ccc(Br)cn1 (single isomer, unassigned; (-)) [Compound-32, (−)-5-bromo-N-(1-(4-chlorophenylamino)-2,2,3,3,3-pentafluoropropyl)picolinamide] | 1.3 nM | active enantiomer
